Assay results from publication PMC7506137, “Selective Phosphodiesterase 1 Inhibitor BTTQ Reduces Blood Pressure in Spontaneously Hypertensive and Dahl Salt Sensitive Rats: Role of Peripheral Vasodilation” (Frontiers in Physiology, 2020).
Where two headings read alike, the source gives them in different places.

Assay: Plasma exposure (dried blood spot) after single oral dose
Assay type: in vivo
Conditions: male, Sprague Dawley, rat, whole blood (dried blood spot), po
Procedure: Male Sprague Dawley rats at 6 to 7 weeks were dosed orally by p.o. gavage with different doses of BTTQ formulated in 1% hydroxyethlycellulose (Dow Corning, Midland, MI, United States) (w/v), 0.25% polysorbate 80 (Sigma-Aldrich, St. Louis, MO, United States) (v/v), and 0.05% antifoam (v/v; Dow Corning, Midland, MI, United States) in purified water. Following dosing, ear temperature was measured by using a k-type thermocouple probe digital thermometer (Cole Parmer) every hour for 6 h and then at 24 h. Blood samples for plasma exposure measurement were obtained at the same time. Blood was collected via a tail snip directly into a 20-μL EDTA-coated capillary and immediately spotted onto a Whatman DMPK-C DBS card (GE Healthcare Bio-Sciences). Tail snips were performed by removing approximately 1 mm of the tail by using a scalpel. Blood flow was initiated by gentle squeezing of the tail. No analgesia or anesthesia was used during blood collections. A single sample and spot were collected per time point. The DBS cards were allowed to dry for approximately 2 h at room temperature, after which the cards were placed in a zip-top bag, stored, and shipped at ambient temperature.

[1] = 0.03 mg/kg, oral 0.03 mg/kg, FU 0.053, read-out: Unbound Concentration, Mean
[2] = 0.03 mg/kg, oral 0.03 mg/kg, dried blood spot, read-out: Concentration, Mean
[3] = 0.03 mg/kg, oral 0.03 mg/kg, FU 0.053, read-out: Unbound Concentration, individual animals
[4] = 0.03 mg/kg, oral 0.03 mg/kg, dried blood spot, read-out: Concentration, individual animals
[5] = 0.1 mg/kg, oral 0.1 mg/kg, FU 0.053, read-out: Unbound Concentration, Mean
[6] = 0.1 mg/kg, oral 0.1 mg/kg, FU 0.053, read-out: Unbound Concentration, individual animals
[7] = 0.1 mg/kg, oral 0.1 mg/kg, dried blood spot, read-out: Concentration, Mean
[8] = 0.1 mg/kg, oral 0.1 mg/kg, dried blood spot, read-out: Concentration, individual animals
[9] = 0.3 mg/kg, oral 0.3 mg/kg, FU 0.053, read-out: Unbound Concentration, Mean
[10] = 0.3 mg/kg, oral 0.3 mg/kg, FU 0.053, read-out: Unbound Concentration, individual animals
[11] = 0.3 mg/kg, oral 0.3 mg/kg, dried blood spot, read-out: Concentration, Mean
[12] = 0.3 mg/kg, oral 0.3 mg/kg, dried blood spot, read-out: Concentration, individual animals
[13] = 1 mg/kg, oral 1 mg/kg, FU 0.053, read-out: Unbound Concentration, Mean

O=c1c2nnc(C3(C4CC4)CC3)n2c2c(n1CC1CC1)CCCC2 [BTTQ, 1-[1,1′-bi(cyclopropyl)-1-yl]-5-(cyclopropylmethyl)-6,7,8,9-tetrahydro[1,2,4]triazolo[4,3-A]quinoxaline-4(5H)-one]
concentration at 1 h [1]: 2.52 nM | concentration at 1 h [2]: 47.5 nM | concentration at 2 h [1]: 2.66 nM | concentration at 2 h [3]: 2.17 nM | concentration at 2 h [2]: 50.2 nM | concentration at 2 h [4]: 40.9 nM | concentration at 3 h [1]: 2.23 nM | concentration at 3 h [3]: 2.04 nM | concentration at 3 h [2]: 42.1 nM | concentration at 3 h [4]: 38.4 nM | concentration at 4 h [1]: 1.81 nM | concentration at 4 h [3]: 1.67 nM | concentration at 4 h [2]: 34.2 nM | concentration at 4 h [4]: 31.6 nM | concentration at 5 h [1]: 1.5 nM | concentration at 5 h [3]: 1.86 nM | concentration at 5 h [2]: 28.3 nM | concentration at 5 h [4]: 35.1 nM | concentration at 6 h [1]: 1.16 nM | concentration at 6 h [2]: 22 nM | concentration at 24 h [1]: 0 nM | concentration at 24 h [2]: 0 nM | concentration at 1 h [5]: 10.6 nM | concentration at 1 h [6]: 13.2 nM | concentration at 1 h [7]: 201 nM | concentration at 1 h [8]: 249 nM | concentration at 2 h [5]: 10 nM | concentration at 2 h [6]: 11.7 nM | concentration at 2 h [7]: 189 nM | concentration at 2 h [8]: 220 nM | concentration at 3 h [5]: 8.98 nM | concentration at 3 h [6]: 8.9 nM | concentration at 3 h [7]: 169 nM | concentration at 3 h [8]: 168 nM | concentration at 4 h [5]: 6.75 nM | concentration at 4 h [6]: 7.1 nM | concentration at 4 h [7]: 127 nM | concentration at 4 h [8]: 134 nM | concentration at 5 h [5]: 5.13 nM | concentration at 5 h [6]: 5.99 nM | concentration at 5 h [7]: 96.9 nM | concentration at 5 h [8]: 113 nM | concentration at 6 h [5]: 4.61 nM | concentration at 6 h [6]: 4.62 nM | concentration at 6 h [7]: 87 nM | concentration at 6 h [8]: 87.1 nM | concentration at 24 h [5]: 0.462 nM | concentration at 24 h [6]: 2.31 nM | concentration at 24 h [7]: 8.7 nM | concentration at 24 h [8]: 43.5 nM | concentration at 1 h [9]: 27.7 nM | concentration at 1 h [10]: 24.2 nM | concentration at 1 h [11]: 523 nM | concentration at 1 h [12]: 456 nM | concentration at 2 h [9]: 23.7 nM | concentration at 2 h [10]: 19.3 nM | concentration at 2 h [11]: 447 nM | concentration at 2 h [12]: 364 nM | concentration at 3 h [9]: 16.6 nM | concentration at 3 h [10]: 14.7 nM | concentration at 3 h [11]: 314 nM | concentration at 3 h [12]: 278 nM | concentration at 4 h [9]: 11.8 nM | concentration at 4 h [10]: 12.3 nM | concentration at 4 h [11]: 223 nM | concentration at 4 h [12]: 232 nM | concentration at 5 h [9]: 8.68 nM | concentration at 5 h [10]: 8.75 nM | concentration at 5 h [11]: 164 nM | concentration at 5 h [12]: 165 nM | concentration at 6 h [9]: 6.73 nM | concentration at 6 h [10]: 7.26 nM | concentration at 6 h [11]: 127 nM | concentration at 6 h [12]: 137 nM | concentration at 24 h [9]: 0 nM | concentration at 24 h [11]: 0 nM | concentration at 1 h [13]: 92.5 nM | concentration at 1 h (1 mg/kg, oral 1 mg/kg, dried blood spot, read-out: Concentration, Mean): 1750 nM | concentration at 2 h [13]: 87.6 nM
